# Entries after “also recorded” stand apart in the source; their conditions may differ. Where two headings read alike, the source gives them in different places. Positions of bridges follow the written chain, without caps; N, C: chain ends. Residues, ends and D or L forms follow the SMILES beside them. No end group written: not given here.
# What was measured:
# WT-amylin [1] = molecular target: T1, WT-amylin (Homo sapiens, UniProt P10997); experiment: ThT assay, inhibition of WT-amylin fibrillization by analogs added in trans; type: biochemical; parameters: purchased Biopeptide (San Diego, CA); host or cells: solid-phase synthesis; details: 20 μM WT-amylin
# T1 sequence (P10997 34-70 limits assumed): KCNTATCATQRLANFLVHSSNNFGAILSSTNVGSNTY
# Description: The time course of fibrillization in solution was monitored using 100–200 μL amylin samples, contained in white polystyrene clear bottom 96-well plates (Corning Inc., Corning, NY). Plates were covered with a clear polyester sealing tape (Fisher Scientific, Agawam, MA) to prevent evaporation. Stock solutions of 1.1 mM WT-amylin and inhibitor peptides were prepared in 100% DMSO, which dissolves and disaggregates amylin fibrils, and were stored at −80°C when not in use. […] For experiments using larger 400 μM concentrations of Arg-2 and Mem-T, the solutions were prepared by diluting 100% DMSO stock solutions of 20 mM peptide to a final DMSO concentration of 2% (v/v). Amylin was the last component added to the samples for the kinetic reactions, in order to reduce the dead time for the experiments. The plates were incubated at 25°C without agitation. Fluorescence intensity was recorded at 2 min intervals with excitation at 440 nm and emission at 490 nm on a Fluoroskan Ascent 2.5 fluorescence plate reader. Fibrillization reactions for the peptides alone were performed in triplicate and for analog-peptide inhibition of WT-amylin in duplicate, to estimate experimental uncertainties in kinetic parameters.
# [2] = ThT assay of fibrillization kinetics, peptides alone; type: physicochemical
# Description: The time course of fibrillization in solution was monitored using 100–200 μL amylin samples, contained in white polystyrene clear bottom 96-well plates (Corning Inc., Corning, NY). Plates were covered with a clear polyester sealing tape (Fisher Scientific, Agawam, MA) to prevent evaporation. Stock solutions of 1.1 mM WT-amylin and inhibitor peptides were prepared in 100% DMSO, which dissolves and disaggregates amylin fibrils, and were stored at −80°C when not in use. Starting from the 1.1 mM stock solutions in 100% DMSO, samples for fibrillization reactions were prepared to contain 20 μM amylin and 10 μM ultrapure ThT, in 20 mM sodium phosphate buffer, pH 7.4, and a final DMSO concentration of 2% (v/v). For experiments using larger 400 μM concentrations of Arg-2 and Mem-T, the solutions were prepared by diluting 100% DMSO stock solutions of 20 mM peptide to a final DMSO concentration of 2% (v/v). Amylin was the last component added to the samples for the kinetic reactions, in order to reduce the dead time for the experiments. The plates were incubated at 25°C without agitation. Fluorescence intensity was recorded at 2 min intervals with excitation at 440 nm and emission at 490 nm on a Fluoroskan Ascent 2.5 fluorescence plate reader. Fibrillization reactions for the peptides alone were performed in triplicate and for analog-peptide inhibition of WT-amylin in duplicate, to estimate experimental uncertainties in kinetic parameters.
# [3] = TEM of aggregates formed by peptides alone; type: physicochemical; details: 80 μM peptide, 2 days, 20 mM phosphate pH 7.4, 37°C, no agitation
# Description: (§1) Samples containing 80 μM concentrations of WT-amylin and the three analogs were incubated without agitation at a temperature of 37°C in 20 mM phosphate buffer (pH 7.4). For the inhibition reactions, samples contained WT-amylin at an 80 μM concentration, together with 160 μM of Arg-1, Arg-2, or Mem-T analogs. Aliquots from the reactions were removed after 2 days for TEM imaging. The aliquots were blotted onto carbon-coated 400-mesh Maxtaform copper grids (Ted Pella Inc. Redding, CA) for 1–3 min, followed by negative staining with 1% uranyl acetate. TEM images were recorded on an FEI Tecnai G^2 Spirit BioTwin transmission electron microscope equipped with an AMT XR-40 camera.
# [4] = system: WT-amylin cytotoxicity towards MIN6 mouse model of pancreatic β-cells; experiment: Protection of MIN6 cells against WT-amylin cytotoxicity (Alamar Blue); details: MIN6 cells, 80 μM WT-amylin, up to 2 : 1 inhibitor : WT-amylin
# Description: (§2) The stock solutions were diluted with FBS-free DMEM and sonicated continuously for 5 min at 75% amplitude before use. FBS was subsequently added to a concentration of 15% (v/v), giving final amylin concentrations of 40, 80, and 160 μM. The final DMSO concentration for all cytotoxicity experiments was 1% (v/v).
# (§3) Cytotoxicity was measured using the mouse insulinoma 6 (MIN6) cell line model of β-pancreatic cells, which were a gift from Dr. Anil Rustgi (University of Pennsylvania). Cells were seeded at a density of 20,000 per 100 μL in black clear-bottom 96-well plates. The cells were grown in DMEM with 15% FBS, 25 mM glucose, 2 mM L-glutamine, […] sodium pyruvate, 55 μM β-mercaptoethanol, 1000 units/mL penicillin, and 100 μg/mL streptomycin, for 20 h at 37°C in a humidified incubator with 5% CO2. […] The cells were incubated for another 24 h followed by the addition of 10% (v/v) of the redox indicator dye Alamar Blue at the concentration supplied by the manufacturer (Invitrogen). Fluorescence, due to the reduction of Alamar Blue by viable cells, was measured after 6 h, using excitation and emission wavelengths of 544 and 590 nm, respectively. Cell viability was calculated from the ratio of Alamar Blue fluorescence in treated to untreated cells. Uncertainties were calculated as the SEMs of triplicate measurements.
# WT-amylin [5] = molecular target: T1, WT-amylin; experiment: TEM of WT-amylin fibrils formed in presence of inhibitor peptides; type: biochemical; parameters: purchased Biopeptide (San Diego, CA); host or cells: solid-phase synthesis; details: 80 μM WT-amylin with 160 μM analog, 20 mM sodium phosphate pH 7.4, 1% DMSO, 37°C, 24 h
# Description: as §1
# Figure 8 TEM images of fibrils formed from 80 μM WT amylin in the presence or absence of inhibitor peptides. (a) WT amylin alone, (b) with 160 μM Arg-1, (c) with 160 μM Arg-2, and (d) with 160 μM Mem-T. Aliquots were removed for TEM imaging 24 h after the fibrillization reactions were started. Reactions were carried out in 20 mM sodium phosphate (pH 7.4), 1% DMSO (v/v), at 37°C.
# [6] = system: MIN6 models of pancreatic β-cells; details: neutral pH, cited from earlier work
# Source text: (§4) In type 2 diabetes, the positively charged 37-residue hormone amylin misfolds into cationic fibrils which have been implicated in the destruction of the pancreatic β-cells that make insulin and amylin, thus contributing to pathology. Amylin is a particularly favorable system for investigating the roles of charges in fibrillization, since the core of the intermolecular β-sheet fibril structure has only one pH-titratable group, His18 [9]. The histidine acts as an electrostatic switch, inhibiting fibrillization in its charged state at acidic pH and favoring fibrillization in its uncharged ... || The motivation for the studies described in this work was to see if electrostatic charge repulsion could be exploited to design new types of inhibitors of amylin fibrillization and cytotoxicity. […] Moreover, addition of a single charged lysine residue ...
# WT-amylin fibrillization = details: cited from earlier work
# Source text: as §4, with “|| An IC50 analysis of the inhibition data was performed to obtain quantitative information (Figure 5).” for “||”, “Arg-1 concentration-dependence” for “motivation”, “inhibition of WT-amylin fibril elongation rates gives an IC50 value of 0.6 ± 0.5 μM. For Arg-2 and Mem-T, the IC50 values are ~10 μM (Figure 5(a)). In addition” for “studies described in this work was”, “effecting elongation rates, Arg-2 increases the lag times for WT-amylin fibrillization with an IC50” for “see if electrostatic charge repulsion could be exploited to design new types”, “~0.1 μM.” for “inhibitors of amylin fibrillization and cytotoxicity.”
# [7] = parameters: method as in 2 sources, ref 21 = [21]; PMID 23016872; doi:10.1021/bi300574r; 21 Marek P. J. Patsalo V. Green D. F. Raleigh D. P. Ionic strength effects on amyloid formation by amylin are a complicated interplay among debye screening, ion selectivity, and hofmeister effects Bio ||| ref 7 = [7]; PMID 22206987; doi:10.1016/j.jmb.2011.12.032; 7 Cao P. Tu L.-H. Abedini A. Sensitivity of amyloid formation by human islet amyloid polypeptide to mutations at residue 20 Journal of Molecular Biology 2012 421 2-3 282 295 10.1016/j.jmb.2011.12.032; details: compared to WT-amylin; cited from earlier work
# Source text: In type 2 diabetes, the positively charged 37-residue hormone amylin misfolds into cationic fibrils which have been implicated in the destruction of the pancreatic β-cells that make insulin and amylin, thus contributing to pathology. Amylin is a particularly favorable system for investigating the roles of charges in fibrillization, since the core of the intermolecular β-sheet fibril structure has only one pH-titratable group, His18 [9].
# [8] = system: MIN6 mouse model of pancreatic β-cells; details: melittin compared with 160 μM WT-amylin
# Description: as §2, §3
# [9] = 400 μM peptide, 150 mM NaCl, pH 7.4, 2% DMSO, 25°C, ThT, triplicate
molecule,measurement,setting,value
CC[C@H](C)[C@H](NC(=O)[C@H](C)NC(=O)CNC(=O)[C@H](Cc1ccccc1)NC(=O)[C@H](CC(N)=O)NC(=O)[C@H](CC(N)=O)NC(=O)[C@H](CO)NC(=O)[C@H](CO)NC(=O)[C@H](Cc1c[nH]cn1)NC(=O)[C@H](CC(=O)O)NC(=O)[C@H](CC(=O)O)NC(=O)[C@H](CC(=O)O)NC(=O)[C@H](CC(N)=O)NC(=O)[C@H](C)NC(=O)[C@H](CC(=O)O)NC(=O)[C@H](CCCNC(=N)N)NC(=O)[C@H](CC(=O)O)NC(=O)[C@@H](NC(=O)[C@H](C)NC(=O)[C@@H]1CSSC[C@H](NC(=O)[C@@H](N)CCCCN)C(=O)N[C@@H](CC(N)=O)C(=O)N[C@@H]([C@@H](C)O)C(=O)N[C@@H](C)C(=O)N[C@@H]([C@@H](C)O)C(=O)N1)[C@@H](C)O)C(=O)N[C@@H](CC(C)C)C(=O)N[C@@H](CO)C(=O)N[C@@H](CO)C(=O)N[C@H](C(=O)N[C@@H](CC(N)=O)C(=O)N[C@H](C(=O)NCC(=O)N[C@@H](CO)C(=O)N[C@@H](CC(N)=O)C(=O)N[C@H](C(=O)N[C@@H](Cc1ccc(O)cc1)C(N)=O)[C@@H](C)O)C(C)C)[C@@H](C)O [Mem-T] (H-KCNTATCATDRDANDDDHSSNNFGAILSSTNVGSNTY-NH2; disulfide 2-7 (inferred); N-terminus assumed),reduction in elongation rates relative to arginine-peptides,WT-amylin [1],only about half of that for the arginine-peptides
same,effect on WT-amylin fibrillization lag time,WT-amylin [1]; 150 mM NaCl,decrease at high concentrations; also recorded: causes a reduction in lag times at high concentrations of the analog (>10 μM); also recorded: decreases the lag times
same,reduction of WT-amylin fibril elongation rate,"WT-amylin [1]; 150 mM NaCl, analog 0.001 to 120 μM",4 fold
same,salt dependence of inhibition of elongation rate,WT-amylin [1]; varying NaCl,salt effects on elongation rates are reduced close to the uncertainties of the measurements
same,salt dependence of lag time shortening,WT-amylin [1]; varying NaCl,shows a strong salt concentration dependence
same,fibrillization detected (ThT),"[2]; 20 μM peptide, 150 mM NaCl, pH 7.4, 25°C",failed to fibrillize
same,fibril elongation rate,[2]; [9],6.1 ± 1.4 × 10^−6 min^−1
same,fibrillization lag time,[2]; [9],"10,000 min"
same,fibrillization detected (ThT),"[2]; 400 μM peptide, absence of salt",only a very weak signal for fibrils was detected
same,fibrillization detected (ThT),"[2]; 400 μM peptide, pH 7.4, 2% DMSO, 25°C",weak fibrillization
same,fibrillization detected (ThT),"[2]; 400 μM peptide, physiological salt concentrations and above",Fibrillization was stimulated
same,aggregate morphology by TEM,[3],only detected amorphous aggregates with nonfibrillar morphologies; also recorded: few if any fibrils
same,protection against WT-amylin cytotoxicity (overall),[4],failed to protect against WT-amylin cytotoxicity
same,TEM of WT-amylin fibrils formed with inhibitor,WT-amylin [5],indistinguishable from those formed with WT-amylin alone
"H18R: H18R mutant of amylin (KCNTATCATQRLANFLVRSSNNFGAILSSTNVGSNTY; not fully specified (C-terminus); ends and bridges not checked; UniProt P10997 34-70, looked up, variant H18R)",cytotoxicity to β-cells,[6],not cytotoxic to β-cells
same,cytotoxicity to β-cells,[6]; listed as Substitution of a positively charged arginine at position 18,lowers cytotoxicity to MIN6 models of pancreatic β-cells compared to WT-amylin
"S20K: amylin with the S20K mutation (KCNTATCATQRLANFLVHSKNNFGAILSSTNVGSNTY; not fully specified (C-terminus); ends and bridges not checked; UniProt P10997 34-70, looked up, variant S20K)",inhibition of WT-amylin fibrillization,WT-amylin fibrillization; added in trans,inhibit fibrillization of the WT-amylin peptide; also recorded: inhibits fibrillization of WT-amylin when added in trans
same,fibrillization of mutant amylin,[7],much slower fibrillization; also recorded: fibrillizes much more slowly
heparin,effect on WT-amylin fibrillization,WT-amylin fibrillization,enhance fibrillization of WT-amylin
melittin,"viability of MIN6 cells, positive control",[8],comparable to the value obtained with the potent toxin melittin
